Measurements from publication PMC4890880 (ACS infectious diseases, 2016).
Read-outs that look alike come from different tables or passages of the source.

What was measured:
HepG2-A16-CD81EGFP cells = experiment: cells; conditions: Homo sapiens; for IC50: HepG2, read-out: Tox IC50; for inhibition at 50 µM: HepG2, read-out: Tox max inhibition (%) @ 50 uM
[1] = tested on: Plasmodium berghei (Pb-Luc) exoerythrocytic-stage parasites; experiment: microbe, parasite or virus in culture
[2] = HepG2, read-out: HepG2 Tox% @ 50 uM rep1
[3] = HepG2, read-out: HepG2 Tox% @ 50 uM rep2
[4] = read-out: Inhibition% @ 50 uM rep1
[5] = read-out: Inhibition% @ 50 uM rep2
[6] = read-out: PbLuc IC50, dose response, 1/3 dilutions, max conc. 10 or 50 uM, unit inferred
[7] = read-out: PbLuc max inhibition (%) @ 50 uM

Row | Structure (SMILES) | cytotoxicity at 50 µM (HepG2-A16-CD81EGFP cells; [2]) [%] | cytotoxicity at 50 µM (HepG2-A16-CD81EGFP cells; [3]) [%] | IC50 (HepG2-A16-CD81EGFP cells) [µM] | inhibition at 50 µM (HepG2-A16-CD81EGFP cells) [%] | inhibition at 50 µM [1, 4] [%] | inhibition at 50 µM [1, 5] [%] | IC50 [1, 6] [µM] | inhibition at 50 µM [1, 7] [%] | IC50 ([1]; read-out: PbLuc IC50, dose response, unit inferred) [µM]
1 | CCN(CC)CCn1c(=N)n(CC(O)c2ccc(Cl)c(Cl)c2)c2ccccc21 (stereo not shown) [MMV000248] | 101 | 102 | 27.1 | 98 | 103 | 105 | 8.5 | 99 | –
2 | Cc1ccc2nc(C)cc(Nc3cccc(C(F)(F)F)c3)c2c1 [MMV000326] | 100 | – | – | – | 103 | 103 | – | – | –
3 | Oc1ccc(Br)cc1CN1CCN(Cc2cccc(F)c2)CC1 [MMV000356] | 64 | – | – | – | 100 | 92 | – | – | –
4 | CC(C)(C)c1ccc2c(c1)CN(Cc1ccc(Cl)cc1)CO2 [MMV000442] | 97 | – | – | – | 100 | 101 | – | – | –
5 | CCCCCCn1c(=N)n(CC(O)COc2cccc(C)c2)c2ccccc21 (stereo not shown) [MMV000445] | 99 | – | 13.7 | 99 | 102 | 103 | 4.75 | 100 | –
6 | CC(O)(c1ccc(Cl)cc1)C(CN1CCCCC1)c1ccccc1 (stereo not shown) [MMV000620] | 63 | 90 | – | – | 101 | 102 | – | – | –
7 | COc1ccc(NC(=O)C2c3ccccc3C(=O)N(CC(C)C)C2c2cccs2)cc1Cl (stereo not shown) [MMV000642] | 50 | 30 | > 50 | 24 | 104 | 106 | 17 | 97 | –
8 | COc1ccc(NC(=O)C2c3ccccc3C(=O)N(CC(C)C)C2c2cccs2)cc1 (stereo not shown) [MMV000662] | 37 | 50 | > 50 | 37 | 102 | 106 | 17.5 | 98 | –
9 | Cc1ccc(C2CC(C(F)(F)F)n3nc(C(=O)N4CCN(C(c5ccccc5)c5ccccc5)CC4)cc3N2)cc1 (stereo not shown) [MMV000699] | 49 | – | – | – | 102 | 101 | – | – | –
10 | CCOC(=O)c1cnc2ccc(OC)cc2c1Nc1ccc(N2CCN(C)CC2)cc1 [MMV000704] | 97 | – | – | – | 101 | 102 | – | – | –
11 | Cc1ccnc(NC(c2cccc(OCc3ccccc3)c2)c2ccc3cccnc3c2O)c1 (stereo not shown) [MMV000720] | 99 | – | 5.05 | 99 | 103 | 103 | 1.28 | 100 | –
12 | Oc1ccc(-c2nc(-c3ccc4oc5ccc(-c6[nH]c(-c7ccc(O)cc7)nc6-c6ccccc6)cc5c4c3)c(-c3ccccc3)[nH]2)cc1 [MMV000753] | 101 | – | > 50 | 39 | 104 | 104 | 5.88 | 99 | –
13 | Oc1c(CN2CCN(c3ccccc3F)CC2)cc(Br)c2cccnc12 [MMV000760] | 95 | – | 11.5 | 78 | 102 | 101 | 1.84 | 93 | –
14 | CCCOCc1cc(CN2CCN(c3cccc(Cl)c3)CC2)c(O)c2ncccc12 [MMV000787] | 93 | – | 3.49 | 100 | 100 | 100 | 0.94 | 101 | –
15 | CC(C)OCc1cc(CN2CCN(c3cccc(Cl)c3)CC2)c(O)c2ncccc12 [MMV000788] | 99 | 100 | 3.01 | 94 | 103 | 106 | 0.99 | 101 | –
16 | Cc1ccc(NC(=O)Nc2cccc(Cl)c2)cc1F [MMV000911] | 85 | 89 | – | – | 104 | 105 | – | – | –

Row | Structure (SMILES) | cytotoxicity at 50 µM (HepG2-A16-CD81EGFP cells; [2]) [%] | cytotoxicity at 50 µM (HepG2-A16-CD81EGFP cells; [3]) [%] | IC50 (HepG2-A16-CD81EGFP cells) [µM] | inhibition at 50 µM (HepG2-A16-CD81EGFP cells) [%] | inhibition at 50 µM [1, 4] [%] | inhibition at 50 µM [1, 5] [%] | IC50 [1, 6] [µM] | inhibition at 50 µM [1, 7] [%] | IC50 ([1]; read-out: PbLuc IC50, dose response, unit inferred) [µM]
17 | CC(C)c1ccc(CNCC(O)c2ccccc2)cc1 (stereo not shown) [MMV001049] | 96 | 97 | – | – | 100 | 102 | – | – | –
18 | CC1CC(C)CN(C(=O)c2ccc(Cl)cc2Cl)C1 (stereo not shown) [MMV001344] | 74 | 88 | – | – | 98 | 98 | – | – | –
19 | CCN(CC)CCNc1ccnc2cc(Cl)ccc12 [MMV006087] | 53 | 87 | – | – | 101 | 103 | – | – | –
20 | c1ccc(CNc2nc(Nc3ccccc3)nc3ccccc23)cc1 [MMV006169] | 101 | – | – | – | 103 | 104 | – | – | –
21 | CN1CCN(c2ccc(Nc3c4ccccc4nc4ccccc34)cc2)CC1 [MMV006172] | 97 | 99 | 5.18 | 94 | 104 | 106 | 3.44 | 99 | –
22 | Cc1cc(NCCN2CCCCC2)c2ccc3ccccc3c2n1 [MMV006203] | 93 | 95 | – | – | 99 | 101 | – | – | –
23 | CCN(CC)CCNc1ccnc2cc3ccccc3cc12 [MMV006303] | 99 | – | 42.6 | 92 | 102 | 103 | 20.8 | 98 | –
24 | Cc1cc(Nc2cccc(F)c2)nc(NCc2ccccc2)n1 [MMV006319] | 99 | 102 | – | – | 104 | 106 | – | – | –
25 | COc1cc(OC)c(N(C)C(=O)c2cc3c(s2)-c2ccccc2S(=O)(=O)C3)cc1Cl [MMV006427] | 53 | 52 | > 50 | 39 | 99 | 102 | 11 | 97 | –
26 | Cc1cc(NC(=O)C2c3ccccc3C(=O)N(CC(C)C)C2c2cccs2)no1 (stereo not shown) [MMV006429] | 15 | 18 | > 50 | 18 | 103 | 104 | – | 96 | 21.4
27 | c1ccc2c(NCCc3c[nH]c4ccccc34)c3ccccc3nc2c1 [MMV006513] | 97 | – | – | – | 98 | 101 | – | – | –
28 | CCN(CC)CCNc1ncnc2c1[nH]c1ccc(Br)cc12 [MMV006545] | 99 | 101 | – | – | 104 | 106 | – | – | –
29 | Cc1cc(C)c2c(c1)OCN(Cc1ccccc1Cl)C2 [MMV006558] | 100 | 100 | – | – | 104 | 105 | – | – | –
30 | Clc1ccc2[nH]c3c(NCCCN4CCOCC4)ncnc3c2c1 [MMV006587] | 95 | 98 | – | – | 101 | 100 | – | – | –
31 | CCOC(=O)C1=CN(C)C=C(C(=O)OCC)C1c1cc(Br)c(OCC)c(OC)c1 [MMV006656] | 50 | – | > 50 | 31 | 103 | 103 | 8.23 | 99 | –
